Laboratory results published in the NIST ThermoML archive (doi:10.1016/j.fluid.2014.09.016).
Numbers after ± are expanded uncertainties.

Details: 298.15 K; 101.33 kPa; Liquid; Pycnometric method

SMILES | mass density [kg/m3]
COP(=O)([O-])OC.Cn1cc[n+](C)c1 [1,3-dimethylimidazolium dimethylphosphate] | 1257.8 ± 1.6
CCOP(=O)([O-])OCC.CCn1cc[n+](C)c1 [1-ethyl-3-methylimidazolium diethyl phosphate] | 1146.1 ± 1.4
